Counter-ions that a name gives are not always drawn. Like-named read-outs stand apart in the source and are kept apart here.
How the values were obtained:
[1] = system: POS1 osteosarcoma cell line; assay: viability/cytotoxicity test on osteosarcoma line POS1; assay type: cell-based; settings: mouse osteosarcoma cell line
Experimental: (§1) The biological activities (viability/cytotoxicity test) of the molecules (III) and (IV) were tested in vitro on cultures of human, murine and rat osteosarcoma lines in comparison with normal cells (healthy osteoblasts from mouse calvaria).

[2] = system: OSRGA osteosarcoma cell line; assay: viability/cytotoxicity test on osteosarcoma line OSRGA; assay type: cell-based; settings: rat osteosarcoma cell line
Experimental: as §1

[3] = system: MG63 osteosarcoma cell line; assay: viability/cytotoxicity test on osteosarcoma line MG63; assay type: cell-based; settings: MG-63; human osteosarcoma cell line
Experimental: as §1

[4] = system: Mouse osteosarcoma POS1 cells; assay: in vivo osteolytic primitive bone tumor model, POS1 tumor fragments transplanted into para-osteal site; settings: treated versus untreated (control) mice; FIG. 3
Experimental: Mouse osteosarcoma POS1 cells were injected in the pad of a 5-week old male mouse of the C3H/HeN strain. Fragments of the tumor which develops on this site are then transplanted into a para-osteal site in order to induce development of an osteolytic primitive bone tumor. The molecule (IV) was then injected as a cure of […] injections (IP) of 11.5 or 115 μmol/kg at 24 hr intervals from the 7th day (D7) after tumoral induction.

different cell lines = assay: in vitro cytotoxicity of the fluorescent molecule; assay type: cell-based
mice = assay: administration of the fluorescent molecule in mice; settings: mouse, in vivo
murine fibroblast L929 = assay: cells; assay type: cell-based; settings: Mus musculus, L929, 72 h
POS-1 mouse osteosarcoma [5] = assay: cells; assay type: cell-based; settings: 72 h
POS-1 mouse osteosarcoma [6] = settings: in vivo
mice (Swiss strain) = assay: in vivo bone tropism test in young mice, 4 weeks of treatment; settings: 0.35 μmol/kg sub-cutaneously twice a week; for specific bone volume BV/TV, left femur / specific bone volume BV/TV, average of left and right femur / specific bone volume BV/TV, right femur: 4 weeks; for specific bone volume BV/TV, left femur: control 56.58%; for specific bone volume BV/TV, average of left and right femur: control 62.89%; for specific bone volume BV/TV, right femur: control 69.20%

## CN(CCCOc1cccc(COP(N)(=O)N(CCCl)CCCl)c1)CCC(O)(P(=O)(O)O)P(=O)(O)O (centres unmarked) [Molecule (III), 3-((3-(3-((amino(bis(2-chloroethyl)amino)phosphoryloxy)methyl)phenoxy)propyl)(methyl)amino)-1-hydroxypropane-1,1-diyl-diphosphonic acid]
[1]
  IC50: > 200 µM
[2]
  IC50: > 200 µM
[3]
  IC50: > 200 µM

## CN(CCCOc1cccc(COCCOP(N)(=O)N(CCCl)CCCl)c1)CCC(O)(P(=O)(O)O)P(=O)(O)O (centres unmarked) [Molecule (IV), {3-[(3-{3-[6-amino-9-chloro-7-(2-chloroethyl)-6-oxido-2,5-dioxa-7-aza-6-phosphanon-1-yl]phenoxy}propyl)(methyl)amino]-1-hydroxypropane-1,1-diyl}biphosphonic acid]
[1]
  IC50: > 500 µM
[2]
  IC50: > 500 µM
[3]
  IC50: > 500 µM
[4]
  bone mineral density in the epiphyseal area (radiographs): increase in the bone mineral density

## CN(CCCOc1cccc(CN(C)S(=O)(=O)c2cccc3c(N(C)C)cccc23)c1)CCC(O)(P(=O)(O)O)P(=O)(O)O [Molecule (II), 3-((3-(3-((5-dimethylamino)-N-methylnaphthalene-1-sulfonamido)methyl)phenoxy)propyl(methyl)amino)-1-hydropropane-1,1-diyldiphosphonic acid]
Different cell lines
  cytotoxic activity in vitro: did not have any cytotoxic activity
mice
  cytotoxic activity after administration in mice: did not either reveal any cytotoxic activity

## CN(CCCOc1cccc(COP(N)(=O)N(CCCl)CCCl)c1)CCC(=O)OC(C)(C)C (centres unmarked) [Molecule 3]
Murine fibroblast L929; read-out: IC50 L929 (DMSO)
  IC50: 500 µM
Murine fibroblast L929; read-out: IC50 L929 (ethanol)
  IC50: > 500 µM
POS-1 mouse osteosarcoma [5]; read-out: IC50 POS-1 (DMSO)
  IC50: 280 µM
POS-1 mouse osteosarcoma [5]; read-out: IC50 POS-1 (ethanol)
  IC50: 500 µM

## NP(=O)(OCc1cccc(OCCCBr)c1)N(CCCl)CCCl (centres unmarked) [Molecule 2]
Murine fibroblast L929; read-out: IC50 L929 (DMSO)
  IC50: > 500 µM
Murine fibroblast L929; read-out: IC50 L929 (ethanol)
  IC50: 250 µM
POS-1 mouse osteosarcoma [5]; read-out: IC50 POS-1 (DMSO)
  IC50: 200 µM
POS-1 mouse osteosarcoma [5]; read-out: IC50 POS-1 (ethanol)
  IC50: 300 µM
POS-1 mouse osteosarcoma [6]
  survival rate: significant increase

## CN(CCCOc1ccccc1)CCC(O)(P(=O)(O)O)P(=O)(O)O [Molecule 4]
Mice (Swiss strain)
  specific bone volume BV/TV, left femur: 73.69%
  specific bone volume BV/TV, average of left and right femur: 73.88%
  specific bone volume BV/TV, right femur: 74.08%
Mice (Swiss strain); after 4 weeks, versus control mice, FIG. 2
  mineral density on radiographs: increase in the mineral density

## O=P(O)(O)C(O)(Cn1ccnc1)P(=O)(O)O [Disodium salt of zoledronic acid, zoledronic acid, reference compound]
Mice (Swiss strain)
  specific bone volume BV/TV, left femur: 72.72%
  specific bone volume BV/TV, average of left and right femur: 74.02%
  specific bone volume BV/TV, right femur: 75.33%
Mice (Swiss strain); after 4 weeks
  weight follow-up and general condition of the mice: no incidence on the weight follow-up, nor on the general condition
